PubChem BioAssay (NCI)
Values joined by “and” are separate entries in the source; they are usually repeats but may differ in a detail not shown here. Equal entries are not always repeated.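 The compound was tested at five concentrations on cells cultured in 96-well plates, with a 48-hour exposure period. GI50 = concentration required for 50% inhibition of growth. Definition used: TGI = concentration required for complete inhibition of growth.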

tested on: MDA-MB-435; assay: growth of human tumour cells (NCI), 48 h

Row | SMILES | TGI | GI50
1 | O=C(CCCn1ccnc1[N+](=O)[O-])NCCn1cncc1[N+](=O)[O-] | > 100 µM | –
2 | Cn1cc(C2=C(c3ccc4ccccc4c3)C(=O)NC2=O)c2ccccc21 | > 13.6 µM | 0.885 µM
3 | O=C(OCc1ccc2cccc(O)c2n1)N1CCN(C(=O)c2cc3cc(F)ccc3[nH]2)CC1 | 2.8 µM | 1.19 µM
4 | C[As](C)SC1OC(CO)C(O)C1O (centres undefined) | 0.746 µM | 0.154 µM
5 | CCCCCCCCCC/C=C/CC(=O)SCCNC(=O)CCNC(=O)[C@@H](O)C(C)(C)COP(=O)(O)OP(=O)(O)OCC1OC(n2cnc3c(N)ncnc32)C(O)C1OP(=O)(O)O (some centres undefined) | > 10 µM | –
6 | Cn1c(=O)c2c(nc(Nc3cc(=O)[nH]c(=O)[nH]3)n2Cc2ccccc2)n(C)c1=O | > 100 µM | > 100 µM
7 | COc1ccc2c(c1)CCC1C2CC[C@@]2(C)C1CC1=CC(COC(C)=O)C3C(=O)c4ccccc4C(=O)C3C12 (some centres undefined) | > 100 µM | > 100 µM
8 | C=C(F)C(=O)N1CCN(c2nc(OC[C@@H]3CCCN3C)nc3c2CCN(c2cccc4cccc(Cl)c24)C3)C[C@@H]1CC#N | 2.22 µM | 0.961 µM
9 | Cc1c2cccnc2c(C)c2c1c1cc(CO)ccc1n2C | 13.7 µM | 3.06 µM
10 | CC/C(=C(/c1ccc(OCCN(C)C)cc1)c1ccc(OC(=O)CCCCC(=O)c2c(C)[nH]c(/C=C3\N=C(c4ccc[nH]4)C=C3OC)c2C)cc1)c1ccccc1 | 46.1 µM | 7 µM
11 | CC[C@]12C=CCN3CC[C@@]4(c5ccc(OC)cc5N(C)[C@H]4[C@@](O)(C(=O)OC)[C@@H]1OC(=O)CCC[P+](c1ccccc1)(c1ccccc1)c1ccccc1)[C@@H]32 | 0.879 µM and 1.23 µM | 0.239 µM and 0.348 µM
12 | CC(=O)OC1Oc2ccccc2-c2oc(=O)c(-c3cc(=O)oc4cc(O)ccc34)cc21 (centres undefined) | 54.4 µM | 18.4 µM
13 | CC(C)(C)C(=O)OCOP(=O)(OCOC(=O)C(C)(C)C)C1CCCN(O)C1=O (centres undefined) | 22.5 µM | 0.955 µM
14 | CC(SC(C)C(=O)N/N=C/c1cccc(Cl)c1)C(=O)N/N=C\c1cccc(Cl)c1 (centres undefined) | 23.9 µM | 5.02 µM
15 | CCOC(=O)/C=C/C(C(=O)/C=C/c1ccc(OC2CCCCO2)c(OC)c1)=C(O)\C=C\c1ccc(OC2CCCCO2)c(OC)c1 (centres undefined) | 13.6 µM | 3.23 µM
16 | Cc1ccc(Cl)cc1Nc1nc(C(F)(F)F)ccc1C(=O)N1CCN(c2ccc(F)cc2)CC1 | 29.6 µM | 14.2 µM
17 | CCCCc1c(OC)cc(O)c2c1C(=O)c1[nH]c(C(=O)O)c(O)c(=O)c1C2=O | > 100 µM | –
18 | O=C(Nc1ccc(OS(=O)(=O)c2ccccc2)cc1)C12CC3CC(CC(C3)C1)C2 | > 100 µM | > 100 µM
19 | CCN1CCN(c2ccc(Nc3cc(N(C)C(=O)Nc4c(Cl)c(OC)cc(OC)c4Cl)ncn3)cc2)CC1 | 3.71 µM | 1.86 µM
20 | CC(C)c1ccc(Nc2ccc3c(OCCCN4CCN(C)CC4)cccc3n2)cc1 | 21.4 µM | 6.62 µM
21 | COC(=O)c1cc2c(cc1O)[C@@H](NC(C)=O)CCc1cc(OC)c(OC)c(OC)c1-2 | 1.23 µM | < 0.01 µM
22 | COc1ccc2c(c1)C(C)Cc1c(Cl)ncnc1N2C (centres undefined) | 1.81 µM | 0.355 µM
23 | COCCOc1cc(F)c2c(Nc3ccc(NC(=O)Cn4cc(C(C)C)nn4)cc3)ncnc2c1 | > 100 µM | > 100 µM
24 | C#Cc1cccc(Nc2ncnc3cc(OC)c(OCCCCCCC(=O)NO)cc23)c1 | 0.528 µM | 0.145 µM
25 | Cc1nnc(S(=O)(=O)c2ccc(N=Nc3c(N)nc(N)nc3N)cc2)s1 | > 100 µM | –
26 | O=C(c1ccccc1)c1cc(Cl)ccc1OCCCCN1CCN(CCCCOc2ccc(Cl)cc2C(=O)c2ccccc2)CC1 | 11.9 µM | 3.65 µM
27 | Clc1ccc2c(NCCCNc3nccc(Nc4ccc(Br)cc4)n3)ccnc2c1 | 2.92 µM | 1.55 µM
28 | NC(=NCCCOc1ccc(Cl)cc1)Nc1ccc(C(F)(F)F)cc1 | 3.45 µM | 1.73 µM
29 | C=CC1CC12C(=O)C1OC2(C)C2C(=O)c3cc4ccccc4cc3C(=O)C12 (centres undefined) | 77.8 µM | 26.3 µM

tested on: PC-3 prostate; assay: growth of human tumour cells (NCI), 48 h

Row | SMILES | TGI | GI50
30 | O=C(CCCn1ccnc1[N+](=O)[O-])NCCn1cncc1[N+](=O)[O-] | > 100 µM | –
31 | Cn1cc(C2=C(c3ccc4ccccc4c3)C(=O)NC2=O)c2ccccc21 | > 25 µM | > 25 µM
32 | O=C(OCc1ccc2cccc(O)c2n1)N1CCN(C(=O)c2cc3cc(F)ccc3[nH]2)CC1 | 2.02 µM | 0.513 µM
33 | C[As](C)SC1OC(CO)C(O)C1O (centres undefined) | 9.79 µM | 0.656 µM
34 | CCCCCCCCCC/C=C/CC(=O)SCCNC(=O)CCNC(=O)[C@@H](O)C(C)(C)COP(=O)(O)OP(=O)(O)OCC1OC(n2cnc3c(N)ncnc32)C(O)C1OP(=O)(O)O (some centres undefined) | > 10 µM | –
35 | OCCN1CN(CCO)CN(c2nc(N3CN(CCO)CN(CCO)C3)nc(N3CN(CCO)CN(CCO)C3)n2)C1 | 3.51 ng/mL | –
36 | Cn1c(=O)c2c(nc(Nc3cc(=O)[nH]c(=O)[nH]3)n2Cc2ccccc2)n(C)c1=O | > 100 µM | > 100 µM
37 | COc1ccc2c(c1)CCC1C2CC[C@@]2(C)C1CC1=CC(COC(C)=O)C3C(=O)c4ccccc4C(=O)C3C12 (some centres undefined) | > 100 µM | 48.4 µM
38 | C=C(F)C(=O)N1CCN(c2nc(OC[C@@H]3CCCN3C)nc3c2CCN(c2cccc4cccc(Cl)c24)C3)C[C@@H]1CC#N | 2.44 µM | 0.855 µM
39 | Cc1c2cccnc2c(C)c2c1c1cc(CO)ccc1n2C | 33 µM | 2.67 µM
40 | CC/C(=C(/c1ccc(OCCN(C)C)cc1)c1ccc(OC(=O)CCCCC(=O)c2c(C)[nH]c(/C=C3\N=C(c4ccc[nH]4)C=C3OC)c2C)cc1)c1ccccc1 | 20.6 µM | 4.6 µM
41 | CC[C@]12C=CCN3CC[C@@]4(c5ccc(OC)cc5N(C)[C@H]4[C@@](O)(C(=O)OC)[C@@H]1OC(=O)CCC[P+](c1ccccc1)(c1ccccc1)c1ccccc1)[C@@H]32 | 5.13 µM and 2.59 µM | 0.224 µM and 0.345 µM
42 | CC(=O)OC1Oc2ccccc2-c2oc(=O)c(-c3cc(=O)oc4cc(O)ccc34)cc21 (centres undefined) | 55.6 µM | 16.2 µM
43 | Ic1ccc(Nc2nc3nonc3nc2Nc2ccc(I)cc2)cc1 | > 100 µM | 0.186 µM
44 | CC(C)(C)C(=O)OCOP(=O)(OCOC(=O)C(C)(C)C)C1CCCN(O)C1=O (centres undefined) | > 100 µM | 2.02 µM
45 | CC(SC(C)C(=O)N/N=C/c1cccc(Cl)c1)C(=O)N/N=C\c1cccc(Cl)c1 (centres undefined) | 25.8 µM | 4.36 µM
46 | CCOC(=O)/C=C/C(C(=O)/C=C/c1ccc(OC2CCCCO2)c(OC)c1)=C(O)\C=C\c1ccc(OC2CCCCO2)c(OC)c1 (centres undefined) | > 100 µM | 3.85 µM
47 | Cc1ccc(Cl)cc1Nc1nc(C(F)(F)F)ccc1C(=O)N1CCN(c2ccc(F)cc2)CC1 | 33.3 µM | 10.2 µM
48 | CCCCc1c(OC)cc(O)c2c1C(=O)c1[nH]c(C(=O)O)c(O)c(=O)c1C2=O | > 100 µM | –
49 | O=C(Nc1ccc(OS(=O)(=O)c2ccccc2)cc1)C12CC3CC(CC(C3)C1)C2 | > 100 µM | 2.9 µM
50 | CCN1CCN(c2ccc(Nc3cc(N(C)C(=O)Nc4c(Cl)c(OC)cc(OC)c4Cl)ncn3)cc2)CC1 | 19.2 µM | 3.52 µM
51 | CC(C)c1ccc(Nc2ccc3c(OCCCN4CCN(C)CC4)cccc3n2)cc1 | 31.4 µM | 12.9 µM
52 | COc1ccc(N(C)c2ncnc3occ(C)c23)cc1 | > 51.8 µM | < 0.01 µM
53 | COC(=O)c1cc2c(cc1O)[C@@H](NC(C)=O)CCc1cc(OC)c(OC)c(OC)c1-2 | > 100 µM | 0.015 µM
54 | COc1ccc2c(c1)C(C)Cc1c(Cl)ncnc1N2C (centres undefined) | > 59.1 µM | 0.424 µM
55 | COCCOc1cc(F)c2c(Nc3ccc(NC(=O)Cn4cc(C(C)C)nn4)cc3)ncnc2c1 | > 100 µM | > 100 µM
56 | C#Cc1cccc(Nc2ncnc3cc(OC)c(OCCCCCCC(=O)NO)cc23)c1 | 5.38 µM | 0.273 µM
57 | Cc1nnc(S(=O)(=O)c2ccc(N=Nc3c(N)nc(N)nc3N)cc2)s1 | > 100 µM | –
58 | O=C(c1ccccc1)c1cc(Cl)ccc1OCCCCN1CCN(CCCCOc2ccc(Cl)cc2C(=O)c2ccccc2)CC1 | 13.5 µM | 3.59 µM
59 | Clc1ccc2c(NCCCNc3nccc(Nc4ccc(Br)cc4)n3)ccnc2c1 | 3.56 µM | 1.74 µM
